We go through eleven compounds from ChEMBL document CHEMBL4184230, “Design, synthesis and biological evaluation of novel pyrazolo-oxothiazolidine derivatives as antiproliferative agents against human lung cancer cell line A549” (Bioorg Med Chem Lett, 2018).

≈ marks a conversion by molar mass, not a printed value.

The subject of this experiment is A549. Description: Antiproliferative activity against human A549 cells incubated for 96 hrs by MTT assay. As to conditions: A549, 96 h. The format is functional, cell-based.
For the compound `COC(=O)/C=C1/SC(N2N=C(c3cc4ccccc4o3)CC2c2ccc(OC)c(OC)c2)=NC1=O` (stereo unspecified), the IC50 (usually the concentration needed to halve the response being measured) turned out to be 0.967 µg/mL (≈ 1.97 µM).

As to `CCOC(=O)/C=C1/SC(N2N=C(c3cc4ccccc4o3)CC2c2ccc(OC)cc2)=NC1=O` (stereo unspecified), the IC50 amounted to 1.21 µg/mL (≈ 2.54 µM).

`CCOC(=O)/C=C1/SC(N2N=C(c3cc4ccccc4o3)CC2c2ccc(Cl)cc2)=NC1=O` (stereo unspecified) gave a half-inhibitory concentration (IC50) of over 5 µg/mL.

As to `COC(=O)/C=C1/SC(N2N=C(c3cc4ccccc4o3)CC2c2cccc(Br)c2)=NC1=O` (stereo unspecified), the concentration for half-maximal inhibition (IC50) worked out at 4.29 µg/mL (≈ 8.41 µM).

For the compound `CCOC(=O)/C=C1/SC(N2N=C(c3cc4ccccc4o3)CC2c2cccc(Br)c2)=NC1=O` (stereo unspecified), the IC50 was over 5 µg/mL.

In the case of `CCOC(=O)/C=C1/SC(N2N=C(c3cc4ccccc4o3)CC2c2ccc(F)cc2)=NC1=O` (stereo unspecified), the IC50 was found to be 0.93 µg/mL (≈ 2.01 µM).

In the case of `COC(=O)/C=C1/SC(N2N=C(c3cc4ccccc4o3)CC2c2ccc(Cl)cc2)=NC1=O` (stereo unspecified), half-maximal inhibition (IC50) required 1.08 µg/mL (≈ 2.31 µM).

In turn, `COC(=O)/C=C1/SC(N2N=C(c3cc4ccccc4o3)CC2c2ccc(F)cc2)=NC1=O` (stereo unspecified) yielded a half-maximal inhibitory concentration (IC50) of 0.808 µg/mL (≈ 1.8 µM).

The compound `COC(=O)/C=C1/SC(N2N=C(c3cc4ccccc4o3)CC2c2ccc(OC)cc2)=NC1=O` (stereo unspecified) came in with an IC50 of 2.44 µg/mL (≈ 5.3 µM).

`CCOC(=O)/C=C1/SC(N2N=C(c3cc4ccccc4o3)CC2c2ccc(OC)c(OC)c2)=NC1=O` (stereo unspecified): 3.42 µg/mL (≈ 6.76 µM) corresponded to half-maximal inhibition (IC50).

Compound `CNC(=O)c1cc(Oc2ccc(NC(=O)Nc3ccc(Cl)c(C(F)(F)F)c3)cc2)ccn1` [SORAFENIB] registered an IC50 of 3.78 µg/mL (≈ 8.13 µM).
